Laboratory results taken from patent publication US11951098B2, “Therapeutic agent for meibomian dysfunction” (SANTEN PHARMACEUTICAL CO., LTD., priority 2013, dated 2024).

Legend:
[1] = test system: HR-AD feed fed Hos: HR-1 series hairless mouse; assay: Test using HR-AD feed fed hairless mouse; type: in vivo, Hos: HR-1 series hairless mice; details: for Number of obstructive orifices: among eight orifices at centre of upper eyelid
Description: It has been known that a HR-AD feed is fed to Hos: HR-1 series hairless mouse, obstruction of the meibomian gland orifices similar to the signs/findings of MGD could be recognized (Japanese Patent Application No. 2012-137778). Thus, effects of sirolimus and deforolimus which are representative examples of the present compounds on the obstruction were investigated.
0.1% (w/v) sirolimus suspension: it was prepared by suspending in 0.01% (w/v) hydroxypropylmethyl cellulose.
0.1% (w/v) deforolimus suspension: it was prepared by suspending in 0.01% (w/v) hydroxypropylmethyl cellulose. Incidentally, deforolimus used in the present test was prepared according to the method described in JP 2005-516065A.
Six-weeks old male Hos: HR-1 series hairless mice were grouped into 5 mice of a normal feed fed group (CRF-1 feed, available from Oriental Yeast Co., Ltd.) and 15 mice of a HR-AD feed fed group (available from Nosan Corporation), and fed the normal feed or the HR-AD feed, respectively, which were spontaneously taken. After 28th day from initiation of the feeding, the meibomian gland orifices were observed by using a slit lamp, and a number of obstructive orifices among the eight meibomian gland orifices at the center of the upper eyelid was measured. Incidentally, the presence or absence of obstruction of the meibomian gland orifices was judged by the state whether the meibomian gland orifices were in a turbid and raised or not (see JP 2014-023526A).
Fifteen mice of the HR-AD feed fed group were grouped into a physiological saline solution-administered group, a 0.1% sirolimus suspension-administered group and a 0.1% deforolimus suspension-administered group (5 mice in each group), and from 29th day from initiation of the feeding, the physiological saline solution (2 μL/eye, twice a day), the 0.1% sirolimus suspension (2 μL/eye, twice a day) or the 0.1% (w/v) deforolimus suspension (2 μL/eye, twice a day) were dropped to the eye for 28 days. At 42nd day and 56th day after initiation of the feeding, a number of obstructions of the meibomian gland orifices was measured by using a slit lamp.

[2] = test system: complete Freund's adjuvant administered rabbit; assay: Test using complete Freund's adjuvant administered rabbit; type: in vivo, Japanese white rabbits; details: average; for Score of telangiectasia: right upper eyelid, sum of three fractions
Description: In a complete Freund's adjuvant administered rabbit, telangiectasia around the meibomian gland orifices, and obstruction at the meibomian gland orifices, which are similar to the signs/findings of MGD can be recognized. Effects of sirolimus which was a representative example of the present compound on the telangiectasia and obstruction were investigated (see JP 2014-024835A).
0.1% (w/v) sirolimus suspension: it was prepared by suspending in 0.01% (w/v) hydroxypropylmethyl cellulose. Incidentally, with regard to sirolimus, that purchased from LKT Laboratories, Inc., (Catalog number: R0161) was used (which is the same in the following Examples).
10 μL of the complete Freund's adjuvant was administered to the right upper eyelid (3 portions) of about 2 kg of male Japanese white rabbits, respectively. After 4 days from provocation, around the meibomian gland orifices of the right upper eyelid was observed by using slit lamp, a score of telangiectasia and a score of obstruction at the meibomian gland orifices were judged.
Incidentally, with regard to the score of telangiectasia, in accordance with the criteria in the following Tables 1 and 2, the eyelid margin of the upper eyelid was equally divided to three fractions of the ear side, the center portion and the nose side, the score of telangiectasia around the meibomian gland orifices was judged with regard to the respective fractions, and the sum of the scores of the three fractions was calculated as a score per one eye. Here, the presence or absence of dilation of the capillaries was judged by the state whether the capillaries which cannot be usually recognized with naked eyes can be recognized or not as a result of dilation of the diameter of the blood vessel. Also, the presence or absence of obstruction of the meibomian gland orifices was judged by the state whether the meibomian gland orifices are in a turbid or not.
The rabbits were grouped into a physiological saline solution-administered group and a 0.1% sirolimus suspension-administered group, and tested with 7 or 8 eyes in each group so that fluctuation of the average value of the respective scores became small. After 5th day from provocation, a physiological saline solution (50 μL/eye, twice a day) or a 0.1% sirolimus suspension (50 μL/eye, twice a day) was dropped into the right eye for 10 days. After 11th and 15th days from provocation, around the meibomian gland orifices of the right upper eyelid was observed by using a slit lamp, whereby the score of telangiectasia was judged and the number of the obstructive orifices was measured.

[3] = 42nd day after initiation of the feeding, 0.1% (w/v) suspension 2 μL/eye twice a day from 29th day
[4] = 56th day after initiation of the feeding, 0.1% (w/v) suspension 2 μL/eye twice a day for 28 days
[5] = 11th day after provocation, 0.1% (w/v) suspension 50 μL/eye twice a day from 5th day
[6] = 15th day after provocation, 0.1% (w/v) suspension 50 μL/eye twice a day for 10 days

| SMILES | Effect on number of the obstructions of the meibomian gland orifices (in words) ([1]; 0.1% suspension instilled, versus physiological saline group) | Number of obstructive orifices [1, 3] | Number of obstructive orifices [1, 4] | Score of obstruction of orifices [2, 5] | Score of telangiectasia [2, 5] | Score of obstruction of orifices [2, 6] | Score of telangiectasia [2, 6] |
| --- | --- | --- | --- | --- | --- | --- | --- |
| CO[C@H]1C[C@@H]2CC[C@@H](C)[C@@](O)(O2)C(=O)C(=O)N2CCCC[C@H]2C(=O)O[C@H]([C@H](C)C[C@@H]2CC[C@@H](OP(C)(C)=O)[C@H](OC)C2)CC(=O)[C@H](C)/C=C(\C)[C@@H](O)[C@@H](OC)C(=O)[C@H](C)C[C@H](C)/C=C/C=C/C=C/1C [0.1% Deforolimus suspension, deforolimus] | decreased | 2.7 | 2.2 |  |  |  |  |
| CO[C@H]1C[C@@H]2CC[C@@H](C)[C@@](O)(O2)C(=O)C(=O)N2CCCC[C@H]2C(=O)O[C@H]([C@H](C)C[C@@H]2CC[C@@H](O)[C@H](OC)C2)CC(=O)[C@H](C)/C=C(\C)[C@@H](O)[C@@H](OC)C(=O)[C@H](C)C[C@H](C)/C=C/C=C/C=C/1C [0.1% Sirolimus suspension, sirolimus] |  | 0.7 | 0.0 | 2.3 | 2.1 | 1.3 | 2.1 |
